# Reference: PubChem BioAssay (NCI)
#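 Step 1: Grow cells in 96-well plates. Step 2: Expose to compound for 48 hours at 5 concentrations. Step 3: Interpolate endpoints linearly; if unreached, use highest concentration. The concentration for full growth arrest is given as TGI.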
# Tests used:
# Test in all cases: NCI-60 cell line screen, 48 h
# 786-0 renal = tested on: 786-0 renal
# A498 renal = tested on: A498 renal
# A549 NSCLC = tested on: A549 NSCLC
# ACHN renal = tested on: ACHN renal
# CCRF-CEM leukemia = tested on: CCRF-CEM leukemia
# COLO 205 colon = tested on: COLO 205 colon
# DLD-1 colon = tested on: DLD-1 colon
# DMS 114 small cell lung = tested on: DMS 114 small cell lung
# DMS 273 small cell lung = tested on: DMS 273 small cell lung
# EKVX NSCLC = tested on: EKVX NSCLC
# HCC-2998 colon = tested on: HCC-2998 colon
# HCT-116 colon = tested on: HCT-116 colon
# HCT-15 colon = tested on: HCT-15 colon
# HL-60(TB) leukemia = tested on: HL-60(TB) leukemia
# HOP-62 NSCLC = tested on: HOP-62 NSCLC
# HT29 colon = tested on: HT29 colon
# IGROV1 ovarian = tested on: IGROV1 ovarian
# K-562 leukemia = tested on: K-562 leukemia
# KM12 colon = tested on: KM12 colon
# KM20L2 colon = tested on: KM20L2 colon
# LXFL 529 NSCLC = tested on: LXFL 529 NSCLC
# M14 melanoma = tested on: M14 melanoma
# M19-MEL melanoma = tested on: M19-MEL melanoma
# MALME-3M melanoma = tested on: MALME-3M melanoma
# MOLT-4 leukemia = tested on: MOLT-4 leukemia
# NCI-H226 lung = tested on: NCI-H226 lung
# NCI-H23 lung = tested on: NCI-H23 lung
# NCI-H460 lung = tested on: NCI-H460 lung
# NCI-H522 lung = tested on: NCI-H522 lung
# OVCAR-3 ovarian = tested on: OVCAR-3 ovarian
# OVCAR-4 ovarian = tested on: OVCAR-4 ovarian
# OVCAR-5 ovarian = tested on: OVCAR-5 ovarian
# OVCAR-8 ovarian = tested on: OVCAR-8 ovarian
# RPMI-8226 leukemia = tested on: RPMI-8226 leukemia
# RXF 393 renal = tested on: RXF 393 renal
# RXF-631 renal = tested on: RXF-631 renal
# SF-268 CNS = tested on: SF-268 CNS
# SF-295 CNS = tested on: SF-295 CNS
# SF-539 CNS = tested on: SF-539 CNS
# SK-MEL-2 melanoma = tested on: SK-MEL-2 melanoma
# SK-MEL-28 melanoma = tested on: SK-MEL-28 melanoma
# SK-OV-3 ovarian = tested on: SK-OV-3 ovarian
# SN12C renal = tested on: SN12C renal
# SNB-19 CNS = tested on: SNB-19 CNS
# SNB-75 CNS = tested on: SNB-75 CNS
# SNB-78 CNS = tested on: SNB-78 CNS
# SR leukemia = tested on: SR leukemia
# SW-620 colon = tested on: SW-620 colon
# TK-10 renal = tested on: TK-10 renal
# U251 CNS = tested on: U251 CNS
# UACC-257 melanoma = tested on: UACC-257 melanoma
# UACC-62 melanoma = tested on: UACC-62 melanoma
# UO-31 renal = tested on: UO-31 renal
# CAKI-1 renal = tested on: CAKI-1 renal
# HOP-18 NSCLC = tested on: HOP-18 NSCLC
# HOP-92 NSCLC = tested on: HOP-92 NSCLC
# LOX IMVI melanoma = tested on: LOX IMVI melanoma
compound,measurement,setting,value
O=C(NCCCl)SCCO,TGI,786-0 renal,> 100 µM
same,TGI,A498 renal,> 100 µM
same,TGI,A549 NSCLC,> 100 µM
same,TGI,ACHN renal,> 100 µM
same,TGI,CCRF-CEM leukemia,> 100 µM
same,TGI,COLO 205 colon,> 100 µM
same,TGI,DLD-1 colon,> 100 µM
same,TGI,DMS 114 small cell lung,> 100 µM
same,TGI,DMS 273 small cell lung,> 100 µM
same,TGI,EKVX NSCLC,> 100 µM
same,TGI,HCC-2998 colon,> 100 µM
same,TGI,HCT-116 colon,> 100 µM
same,TGI,HCT-15 colon,> 100 µM
same,TGI,HL-60(TB) leukemia,> 100 µM
same,TGI,HOP-62 NSCLC,> 100 µM
same,TGI,HT29 colon,> 100 µM
same,TGI,IGROV1 ovarian,> 100 µM
same,TGI,K-562 leukemia,> 100 µM
same,TGI,KM12 colon,> 100 µM
same,TGI,KM20L2 colon,> 100 µM
same,TGI,LXFL 529 NSCLC,> 100 µM
same,TGI,M14 melanoma,> 100 µM
same,TGI,M19-MEL melanoma,> 100 µM
same,TGI,MALME-3M melanoma,> 100 µM
same,TGI,MOLT-4 leukemia,> 100 µM
same,TGI,NCI-H226 lung,> 100 µM
same,TGI,NCI-H23 lung,> 100 µM
same,TGI,NCI-H460 lung,> 100 µM
same,TGI,NCI-H522 lung,> 100 µM
same,TGI,OVCAR-3 ovarian,> 100 µM
same,TGI,OVCAR-4 ovarian,> 100 µM
same,TGI,OVCAR-5 ovarian,> 100 µM
same,TGI,OVCAR-8 ovarian,> 100 µM
same,TGI,RPMI-8226 leukemia,> 100 µM
same,TGI,RXF 393 renal,> 100 µM
same,TGI,RXF-631 renal,> 100 µM
same,TGI,SF-268 CNS,> 100 µM
same,TGI,SF-295 CNS,> 100 µM
same,TGI,SF-539 CNS,> 100 µM
same,TGI,SK-MEL-2 melanoma,> 100 µM
same,TGI,SK-MEL-28 melanoma,> 100 µM
same,TGI,SK-OV-3 ovarian,> 100 µM
same,TGI,SN12C renal,> 100 µM
same,TGI,SNB-19 CNS,> 100 µM
same,TGI,SNB-75 CNS,> 100 µM
same,TGI,SNB-78 CNS,> 100 µM
same,TGI,SR leukemia,> 100 µM
same,TGI,SW-620 colon,> 100 µM
same,TGI,TK-10 renal,> 100 µM
same,TGI,U251 CNS,> 100 µM
same,TGI,UACC-257 melanoma,> 100 µM
same,TGI,UACC-62 melanoma,> 100 µM
same,TGI,UO-31 renal,> 100 µM
COc1cc2ccnc3c(=C(SC)SC)c(=O)c(c1OC)c23,TGI,786-0 renal,23.1 µM
same,TGI,A549 NSCLC,> 100 µM
same,TGI,ACHN renal,26 µM
same,TGI,CAKI-1 renal,23.4 µM
same,TGI,CCRF-CEM leukemia,17 µM
same,TGI,COLO 205 colon,10.5 µM
same,TGI,DLD-1 colon,29.5 µM
same,TGI,DMS 114 small cell lung,36 µM
same,TGI,DMS 273 small cell lung,30.4 µM
same,TGI,HCC-2998 colon,32.6 µM
same,TGI,HCT-15 colon,29.8 µM
same,TGI,HL-60(TB) leukemia,5.04 µM
same,TGI,HOP-18 NSCLC,26.7 µM
same,TGI,HOP-62 NSCLC,> 100 µM
same,TGI,HOP-92 NSCLC,21.2 µM
same,TGI,HT29 colon,26.2 µM
same,TGI,IGROV1 ovarian,47.5 µM
same,TGI,K-562 leukemia,16.3 µM
same,TGI,KM12 colon,53.5 µM
same,TGI,KM20L2 colon,32.6 µM
same,TGI,LOX IMVI melanoma,10.7 µM
same,TGI,LXFL 529 NSCLC,16.5 µM
same,TGI,M14 melanoma,28.3 µM
same,TGI,M19-MEL melanoma,30.2 µM
same,TGI,MALME-3M melanoma,24.7 µM
same,TGI,MOLT-4 leukemia,23.8 µM
same,TGI,NCI-H460 lung,> 100 µM
same,TGI,NCI-H522 lung,5.18 µM
same,TGI,OVCAR-3 ovarian,28.4 µM
same,TGI,OVCAR-4 ovarian,30.2 µM
same,TGI,OVCAR-5 ovarian,35.9 µM
same,TGI,OVCAR-8 ovarian,22.7 µM
same,TGI,RPMI-8226 leukemia,15.9 µM
same,TGI,RXF 393 renal,26.6 µM
same,TGI,RXF-631 renal,28.9 µM
same,TGI,SF-268 CNS,60.3 µM
same,TGI,SF-295 CNS,> 100 µM
same,TGI,SF-539 CNS,33 µM
same,TGI,SK-MEL-2 melanoma,38.3 µM
same,TGI,SK-MEL-28 melanoma,26 µM
same,TGI,SK-OV-3 ovarian,> 100 µM
same,TGI,SN12C renal,29.9 µM
same,TGI,SNB-19 CNS,> 100 µM
same,TGI,SNB-75 CNS,21.8 µM
same,TGI,SW-620 colon,31 µM
same,TGI,TK-10 renal,27.1 µM
same,TGI,U251 CNS,> 100 µM
same,TGI,UACC-257 melanoma,30.8 µM
same,TGI,UACC-62 melanoma,37.9 µM
same,TGI,UO-31 renal,29.3 µM
